The record followed here is article PMC12163684, “Gunacins: Novel Benzo[g]chromene Derivatives from the Fungus Exobasidium sp. and Their Potent Anti-Leishmania and Trypanosoma Activities” (ACS Omega, 2025).

≈ marks a conversion by molar mass, not a printed value. Like-named read-outs stand apart in the source and are kept apart here.

One assay concerns C. albicans CCM 8215. As to the kind of experiment: Minimum inhibitory concentration (MIC) testing, serial binary dilution in 96-well plates. As to conditions: Candida albicans, CCM8215; 24 h in the dark; n.d. = activity not detected; highest tested concentration 66.7 μM. The format is cell-based. How it is done: (§1) Minimum inhibitory concentration (MIC) testing of the extracts was performed using 96-well polypropylene plates against four different microorganisms: the Gram-positive bacterium K. rhizophila ATCC 9341, the Gram-negative bacterium E. coli ATCC 3988, and the yeasts C. albicans CCM 8215 and C. neoformans CCF 1081.
(§2) A working inoculum of each microorganism was prepared as follows: for E. coli and K. rhizophila, the inoculum was grown in LB medium (LB Broth, 25 g/L, incubated at 36 °C); for C. albicans and C. neoformans, YM6.3 medium (maltose extract 10 g, glucose 4 g, yeast extract 4 g per 1 L distilled water, incubated at 24 °C) with a cell concentration of approximately 5 × 10^5 cells/mL for all microorganisms was used.
(§3) Chloramphenicol served as a positive control for bacteria, while cycloheximide was used as a positive control for fungi. The gradient of the test substances was established by serial binary dilution across the wells. The MIC was determined by identifying the lowest concentration at which no live microorganisms were present. Cultivation was performed in the dark for 24 h.

The subject of another assay is C. neoformans CCF 1081. Described as above. Type of assay: cell-based. As to conditions: Cryptococcus neoformans, CCF1081; 24 h in the dark; n.d. = activity not detected; highest tested concentration 66.7 μM. As for the experimental part:
as §1, §2, §3

The test system of the next assay is E. coli ATCC 3988. The description is as above. The format is cell-based. As to conditions: Escherichia coli, ATCC3988; 24 h in the dark; lowest concentration with no live microorganisms. How it is done:
as §1, §2, §3

A further assay has as its system K. rhizophila ATCC 9341. Described as above. As to conditions: Kocuria rhizophila, ATCC9341; 24 h in the dark; lowest concentration with no live microorganisms. Type of assay: cell-based. As for the experimental part:
as §1, §2, §3

The test system of assay [1] is Madin–Darby canine kidney (MDCK) epithelial cell line. As to the kind of experiment: Cytotoxicity on proliferating cells, crystal violet assay, OD590. The format is cell-based. As to conditions: Canis lupus familiaris, 24 h treatment, read-out: EC50 ± SEM MDCK. How it is done: (§4) MDCK and RAT cells were cultured in DMEM with 10% FBS at 37 °C in a 5% CO2 atmosphere as described previously. , To assess the toxic effects of the compounds on proliferating cells, cells were seeded in 24-well plates for 24 h to reach ∼15% confluence, and cells were treated in triplicate with increasing concentrations of the isolated compounds for an additional 24 h. Cells were washed with 1× PBS, fixed in staining solution (0.5% crystal violet, 20% methanol) for 10 min, and gently washed five times in 1× PBS. The fixed cells were then dissolved in lysis solution (0.1 M sodium citrate, 25% ethanol, pH 4.2) for 30 min, transferred to a 96-well plate in H2O, and the OD^590 was determined. EC50 values were determined using GraphPad Prism software and the dose–response fit equation. The EC50 values were determined from two independent experiments. Additionally, the impact of the isolated substances on the morphology of the HeLa adenocarcinoma cell line and primary human skin fibroblasts was examined by using fluorescence microscopy. Cells were cultured in DME medium supplemented with 10% FCS (Gibco, Invitrogen, Carlsbad, USA) on glass coverslips in 24-well plates until reaching approximately 50% confluence. The cells were treated with varying concentrations of isolated compounds dissolved in DMSO. Wells containing DMEM with DMSO served as the negative control. After 24 h cultivation, the cells were incubated with MitoTracker Red CMXRos (10 min) to label mitochondria, then fixed with 3.7% paraformaldehyde in PBS (20 min, room temperature), permeabilized with 0.1% Triton X-100 in PBS, and blocked with 1% BSA in PBS. The cells were then stained with Phalloidin-Alexa Fluor488 conjugate. All fluorescence reagents were purchased from Molecular Probes, Invitrogen, Carlsbad, CA, USA. Nuclei were stained with Fluoroshield DAPI (Sigma-Aldrich), and cells were examined using an IX71 microscope equipped with a DP70 camera and a 40× objective. Assays were performed at concentrations of 5, 25, 50, 100, and 125 μM.

For assay [2], the system named is RAT2 fibroblast cell line. The description is as above. Type of assay: cell-based. As to conditions: 24 h treatment, read-out: EC50 ± SEM RAT2. As for the experimental part: as §4
The test system of another assay is T. b. evansi AnTat 3/3. As to the kind of experiment: Anti-trypanosomal activity, resazurin (AB assay), bloodstream form. As to conditions: Trypanosoma brucei, 72 h, axenic, 48 h + 24 h resazurin. The format is cell-based, T. brucei evansi. As for the experimental part: (§5) The bloodstream forms of T. b. gambiense LiTat 1.3, T. b. brucei 427, and T. b. evansi AnTat 3/3 were grown in HMI-11 medium pH 7.3 supplemented with 36 mM sodium bicarbonate, 100 U/mL penicillin/streptomycin, and 10% fetal bovine serum at 37 °C and 5% CO2. The bloodstream form of Trypanosoma congolense IL3000 (generous gift from Liam Morrison) was cultured in TcBSF-1 medium pH 7.3 supplemented with 26 mM sodium bicarbonate, 25 mM HEPES, 5.5 mM glucose, 1 mM sodium pyruvate, 0.04 mM adenosine, 0.1 mM hypoxanthine, 0.02 mM thymidine, 0.02 mM bathocuproine, 2 mM L-glutamine, 0.2 mM 2-mercaptoethanol, 100 U/ml penicillin/streptomycin, and 20% goat serum New Zealand origin (Gibco) at 34 °C, 5% CO2. The assay for anti-trypanosomal activity was performed using the resazurin sodium salt dye (AB Assay) according to the published protocol in a 96-well plate format. Parasites at a number of 5 × 10^3 per well (T. b. brucei and T. b. gambiense) or 1 × 10^4 per well (T. b. evansi) were incubated with different drug concentrations (2-fold serial dilutions) in a volume of 200 μL of the medium. Medium with 1% DMSO (the highest concentration of the solvent used in the assay) was used to confirm no effect of the solvent on the cell growth. The plates were incubated for 48 h at the appropriate temperature. Then, 20 μL of resazurin sodium salt solution (0.125 mg/mL in 1× PBS, pH 7. 4) was added to each well, and the cells were incubated for another 24 h under the same conditions. The fluorescence signal was quantified using a Tecan Infinite M200 plate reader at excitation and emission wavelengths of 560 and 590 nm, respectively. The EC50 values were calculated using GraphPad Prism 9.5.1 by nonlinear regression with a variable slope. Each EC50 value is the mean ± standard error of the mean of three separate experiments performed in duplicate.
(In general: Resazurin is reduced to fluorescent resorufin, in cell work by metabolically active cells.)

The subject of assay [3] is T. b. gambiense LiTat 1.3. The assay is described as above. Type of assay: cell-based, T. brucei gambiense. As to conditions: Trypanosoma brucei, 72 h, axenic, 48 h + 24 h resazurin. As for the experimental part:
as §5

Take `COc1cc(O)c2c(c1)C(=O)C1=C(C2=O)[C@H](O)[C@@H](O)[C@@H](C)O1` (relative stereo) [Compound 3, (2R,3R,4S)-3,4,6-trihydroxy-8-methoxy-2-methyl-3,4-dihydro-2H-benzo[g]chromene-5,10-dione]: the MIC (as a rule, the smallest concentration in the dilution series that meets the test's criterion for growth inhibition) in the assay on C. albicans CCM 8215 was above 66.7 µM; against C. neoformans CCF 1081, above 66.7 µM; in the assay with E. coli ATCC 3988, 2.1 µM (≈ 0.643 µg/mL); against K. rhizophila ATCC 9341 it was 8.3 µM (≈ 2.54 µg/mL). Also, the EC50 (as a rule, the midpoint of the concentration-response curve) came out at 4.7 ± 0.6 µM in assay [1]; 5.1 ± 0.7 µM in assay [2] (Rat2, 24 h); 4.2 µM with T. b. evansi AnTat 3/3; 4.1 µM in assay [3].

For the molecule `COc1cc(O)c2c(c1)C(=O)C1=C(C2=O)[C@@H](OC(C)=O)[C@@H](O)[C@@H](C)O1` [Compound 1, (2R,3S,4R)-3,6-dihydroxy-8-methoxy-2-methyl-5,10-dioxo-3,4,5,10-tetrahydro-2H-benzo[g]chromen-4-yl acetate], the MIC in the assay on C. albicans CCM 8215 came to 33.3 µM; against C. neoformans CCF 1081 it was 33.3 µM; in the assay on E. coli ATCC 3988 it was 1 µM; in the assay with K. rhizophila ATCC 9341, 1 µM. Besides, the EC50 is 0.1 µM in assay [1]; 0.06 µM in assay [2]; 0.1 µM in assay [2] (Rat2, 24 h); 0.03 µM in the assay with T. b. evansi AnTat 3/3; 0.04 µM in assay [3].

Consider `COc1cc(O)c2c(c1)C(=O)C1=C(C2=O)[C@@H](O)[C@@H](OC(C)=O)[C@@H](C)O1` [Compound 5, (2R,3R,4R)-4,6-dihydroxy-8-methoxy-2-methyl-5,10-dioxo-3,4,5,10-tetrahydro-2H-benzo[g]chromen-3-yl acetate], for which the MIC came out at 66.7 µM in the assay with C. albicans CCM 8215, 33.3 µM with C. neoformans CCF 1081, 1 µM with E. coli ATCC 3988 and 2.1 µM against K. rhizophila ATCC 9341. Also, the EC50 was determined as 0.1 µM in assay [1]; 0.03 µM in assay [2] (Rat2, 24 h); 0.04 µM in the assay with T. b. evansi AnTat 3/3; 0.03 µM in assay [3].

As for `COc1cc(O)c2c(c1)C(=O)C1=C(C[C@@H](OC(C)=O)[C@@H](C)O1)C2=O` [Compound 7, (2R,3R)-6-hydroxy-8-methoxy-2-methyl-5,10-dioxo-3,4,5,10-tetrahydro-2H-benzo[g]chromen-3-yl acetate], the MIC against C. albicans CCM 8215 amounted to 33.3 µM; in the assay on C. neoformans CCF 1081 it was 33.3 µM; in the assay on E. coli ATCC 3988 it was 4.2 µM; against K. rhizophila ATCC 9341, 4.2 µM. Besides, the EC50 in assay [1] was determined as 5.6 ± 1.1 µM; in assay [2] (Rat2, 24 h) it was 6 ± 0.3 µM; in the assay with T. b. evansi AnTat 3/3 it was 0.7 µM; in assay [3], 5.7 µM.
